# Assay results reported in patent US10627412B2, “Periodontal-disease-specific peptide, and treatment and diagnosis of periodontal disease using same” (KAGOSHIMA UNIVERSITY, priority 2010, dated 2020).
# B1: Full-length human Keratin 6: full-length human Keratin 6 protein, parental protein of peptide 1 (protein, UniProt P02538 1-564, looked up)
# chain: MASTSTTIRSHSSSRRGFSANSARLPGVSRSGFSSVSVSRSRGSGGLGGACGGAGFGSRSLYGLGGSKRISIGGGSCAISGGYGSRAGGSYGFGGAGSGFGFGGGAGIGFGLGGGAGLAGGFGGPGFPVCPPGGIQEVTVNQSLLTPLNLQIDPTIQRVRAEEREQIKTLNNKFASFIDKVRFLEQQNKVLETKWTLLQEQGTKTVRQNLEPLFEQYINNLRRQLDSIVGERGRLDSELRGMQDLVEDFKNKYEDEINKRTAAENEFVTLKKDVDAAYMNKVELQAKADTLTDEINFLRALYDAELSQMQTHISDTSVVLSMDNNRNLDLDSIIAEVKAQYEEIAQRSRAEAESWYQTKYEELQVTAGRHGDDLRNTKQEIAEINRMIQRLRSEIDHVKKQCANLQAAIADAEQRGEMALKDAKNKLEGLEDALQKAKQDLARLLKEYQELMNVKLALDVEIATYRKLLEGEECRLNGEGVGQVNISVVQSTVSSGYGGASGVGSGLGLGGGSSYSYGSGLGVGGGFSSSSGRAIGGGLSSVGGGSSTIKYTTTSSSSRKSYKH
# modifications: full-length
# Columns and labels:
# [1] = system: ERK and Akt in gingival epithelial cell (GEC); experiment: Activation of serine/threonine kinases in stimulated gingival epithelial cell; format: cell-based; conditions: stimulation 15 min-2 hr
# Experimental: (§1) Gingiva fibroblasts were stimulated with peptide 1 (K6F), recombinant Keratin 6 (RK6, Rec-K6) or scramble peptide (Sc) for 2-24 hr, and the expression levels of MMP-2, MMP-3, MCP-1, IL-6, IL-8 were measured by Western blot analysis. […] Then, gingiva fibroblast (GF) and gingival epithelial cell (GEC) were stimulated with peptide 1 (K6F) or scramble peptide (Sc), respectively, for 15 min-2 hr, and phosphorylation of p38 in GF, as well as expression of IκB-α and phosphorylation of p65 NFκB and activation of representative serine/threonine kinase in GEC were examined.
# [2] = system: MMP-2, MMP-3, MCP-1, IL-6, IL-8 in gingiva fibroblasts; experiment: Cytokine and chemokine expression in stimulated gingiva fibroblasts, Western blot; format: cell-based; conditions: stimulation 2-24 hr
# Experimental: as §1
# [3] = system: T cells obtained from peripheral blood of the periodontal disease patients; experiment: Pit formation assay on dentin section; format: cell-based, human; conditions: stimulation
# [4] = system: Lymphocytes obtained from periodontitis patients and healthy subjects (T cell proliferation); experiment: Drug-induced lymphocyte stimulation test (DLST); format: cell-based, human; conditions: for T cell proliferation induction potency in DLST: periodontitis patients as compared to healthy subjects
# Source text: Lymphocytes obtained from periodontitis patients and healthy subjects were subjected to a drug-induced lymphocyte stimulation test (DLST) using full-length human Keratin 6 and peptide 1 (fragment thereof) (periodontitis patients: N=22, healthy subjects: N=5).
# [5] = system: gingiva fibroblast (GF); experiment: Binding of FITC-labeled peptide to various cells, confocal microscope; conditions: gingiva fibroblast compared to other cells
# Source text: Various cells were stimulated with FITC-labeled peptide 1 (K6F, P-1), observed under a confocal microscope, and the binding level to K6F was shown by percentage higher than that of the control cell (FIG. 14).
# [6] = system: lymphocytes obtained from these rats; experiment: Lymphoblast formation in cultured lymphocytes of injected rats; format: cell-based, rat
# Experimental: (§2) PBS, full-length human Keratin 6 (FLK6) or peptide 1 (K6F) was administered by intragingival injection to the lower left jaw of rats. […] The lymphocytes obtained from these rats were stimulated with FLK6 or K6F and cultured. […] In addition, peripheral blood mononuclear leukocytes were obtained from these rats, stimulated with K6F or scramble peptide (Sc), and expression of RANKL and CD3 were examined by FACS analysis. […] Moreover, alveolar bone destruction in these rats was examined.
# [7] = system: RANKL in lymphocytes; experiment: RANKL expression in stimulated lymphocytes, Western blot with anti RANKL antibody; format: cell-based, human
# Experimental: Blood samples were collected from progressive (untreated) periodontitis patients, periodontitis patients during treatment and periodontitis patients after treatment to obtain lymphocytes, stimulated with full-length human Keratin 6 (K6; 2 or 4 μg/ml) or peptide 1 (K6F; 60 or 30 μg/ml), expression of RANKL in lymphocytes was examined by Western blot analysis using anti RANKL antibody. […] Fluorescent staining was performed to examine induction of lymphoblast formation by the stimulation with full-length human Keratin 6 or peptide 1. As a result, it was correlated well with the expression of RANKL mRNA (FIG. 8C).
# [8] = system: T cells obtained from peripheral blood of the periodontal disease patients; experiment: Differentiation of stimulated T cells into polynuclear giant cells, tissue staining; format: cell-based, human; conditions: stimulation
# Source text: T cells obtained from peripheral blood of the periodontal disease patients and healthy subject were stimulated with full-length human Keratin 6 (FL) or peptide 1 (K6F), and differentiation into polynuclear giant cells was observed by tissue staining.
# [9] = system: rats; experiment: Intragingival injection to the lower left jaw of rats; format: in vivo, rat; conditions: for tumentia of lower jaw lymph node (Lt): injected left side, intragingival injection; for alveolar bone destruction: lower jaw of injected rats
# Experimental: as §2
# [10] = system: p38 MAPK, IκB-α, p65 NFκB in gingiva fibroblast (GF); experiment: p38 MAPK, IκB-α and p65 NFκB signalling in stimulated gingiva fibroblast; format: cell-based; conditions: stimulation 15 min-2 hr
# Experimental: as §1, with “as well as expression of IκB-α and phosphorylation of p65 NFκB and activation of representative” left out
# [11] = system: RANKL mRNA in lymphocytes; experiment: RT-PCR of RANKL mRNA in lymphocytes of periodontitis patients; format: cell-based, human; conditions: stimulation of lymphocytes of periodontitis patients
# [12] = system: peripheral blood mononuclear leukocytes; experiment: FACS analysis of RANKL and CD3 in peripheral blood mononuclear leukocytes of injected rats; format: cell-based, rat; conditions: in vitro stimulation of cells of rats injected with FL6 or K6F
# Experimental: as §2
# [13] = system: Peripheral blood monocytes derived from severe periodontitis patients; experiment: Immunostaining of peripheral blood monocytes with anti-RANKL and anti-CD3 antibody; format: cell-based, human; conditions: stimulation of cells from severe periodontitis patients
# Source text: Peripheral blood monocytes derived from severe periodontitis patients were stimulated with full-length human Keratin 6 (FL) or peptide 1 (K6F), and immunostained with anti-RANKL antibody and anti-CD3 antibody.
# [14] = in vitro stimulation of lymphocytes of injected rats
# [15] = lymphocytes of rats injected with the substance
# [16] = lymphocytes of healthy subject (Non-PD) and periodontitis patients after treatment (Maintenance Phase)
# [17] = lymphocytes of untreated periodontitis patients and patients during treatment, K6 2 or 4 μg/ml, K6F 60 or 30 μg/ml
Molecule,activation of representative serine/threonine kinase [1],"expression levels of MMP-2, MMP-3, MCP-1, IL-6, IL-8 [2]",bone resorption pit formation [3],"DLST positive samples (T cell proliferation induced) / samples tested ([4]; Healthy subject, N=5)","DLST positive samples (T cell proliferation induced) / samples tested ([4]; Periodontitis patients, N=22)",T cell proliferation induction potency in DLST [4],"binding level to cells, percentage higher than that of the control cell [5]","Lymphoblast formation [6, 14]","Lymphoblast formation [6, 15]","expression of RANKL in lymphocytes [7, 16]","expression of RANKL in lymphocytes [7, 17]",differentiation into polynuclear giant cells [8],tumentia of lower jaw lymph node (Lt) [9],alveolar bone destruction [9],phosphorylation (activation) of p38 MAPK ([10]; GF),degradation of IκB and activation of p65 NFκB [10],expression of RANKL mRNA [11],expression of RANKL and CD3 [12],CD positive cells (T cells) that express RANKL [13]
YEELQITAGRHGDDLRNTK (listed as Homo sapiens) [peptide 1],induced activation of ERK and Akt,remarkably increased expression,formation of a marked bone resorption pit,0/5,3/22,remarkable T cell proliferation induction potency,far higher binding level,further enhanced lymphoblast formation,Lymphoblast formation was observed,not expressed,increased expression of RANKL,remarkable differentiation into polynuclear giant cells,tumentia of lower jaw lymph node,alveolar bone destruction was observed,induced activation of p38 MAPK,did not induce degradation of IκB and activation of p65 NFκB,tended to increase,enhanced expression of RANKL and CD3,remarkably increased
B1,,,formation of a marked bone resorption pit,2/5,13/22,remarkable T cell proliferation induction potency,,further enhanced lymphoblast formation,Lymphoblast formation was observed,not expressed,increased expression of RANKL,remarkable differentiation into polynuclear giant cells,tumentia of lower jaw lymph node,alveolar bone destruction was observed,,,tended to increase,,remarkably increased
